According to patent US11866752B2, “Cysteine polysulfidation and mitochondrial bioenergetics regulated by cysteinyl-tRNA synthetase” (Bio-Xcelerator, Inc., priority 2018, dated 2024):

Legend:
EcCARS = biological target: T1, EcCARS (Escherichia coli, UniProt P21888); assay type: biochemical; settings: for Persulfide generation by EcCARS with cysteine enantiomer as substrate: substrate enantioselectivity
T1 construct: His tag (inferred from nickel-NTA purification); made in house
From the text: The data are means ±s.d. […] Data represent means ±s.d.

ADH5 = biological target: T2, ADH5 (Homo sapiens, UniProt P11766); assay: HPE-IAM labeling of ADH5 cysteine polysulfides, LC-ESI-MS/MS; settings: treatment of ADH5
T2 construct: made in house; host or cells: Escherichia coli
T2 sequence (P11766 whole entry, species assumed): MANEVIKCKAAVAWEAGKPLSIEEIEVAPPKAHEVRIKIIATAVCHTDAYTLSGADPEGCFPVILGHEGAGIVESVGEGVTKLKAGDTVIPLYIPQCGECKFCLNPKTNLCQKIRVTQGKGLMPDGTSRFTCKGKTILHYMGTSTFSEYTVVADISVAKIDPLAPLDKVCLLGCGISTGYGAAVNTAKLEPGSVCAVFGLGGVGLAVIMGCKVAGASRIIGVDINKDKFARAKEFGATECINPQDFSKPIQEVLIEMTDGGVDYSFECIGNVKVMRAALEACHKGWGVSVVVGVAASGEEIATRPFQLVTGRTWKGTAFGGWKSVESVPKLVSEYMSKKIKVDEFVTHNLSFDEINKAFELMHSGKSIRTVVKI
From the text: Redox property of cysteine and protein polysulfides. CysSSHhas unique redox-active properties that distinguishes it from the cysteine (CysSH) thiol. […] Moreover, dialkylpolysulfides can also be nucleophilic and electrophile-mediated cleavage of S—S bonds is established28. The unique properties and reactivity of polysulfides allowed us to develop several analytical techniques aimed at determining endogenous production of LMW and protein-bound polysulfides (Supplementary FIG. 3). We first developed a convenient method for selective detection of polysulfidated proteins: the biotin-polyethylene glycol (PEG)-conjugated maleimide (biotin-PEG-MAL) labeling gel shift assay (PMSA; Supplementary FIG. 3a)15. […] We then used liquid chromatography-electrospray ionizationtandem mass spectrometry (LC-ESI-MS/MS) with 0-(4-hydroxyphenyl) ethyl iodoacetamide (HPE-IAM) as a trapping agent to identify and precisely quantify various hydropolysulfides, and also to verify the site specificity of polysulfidation as well as the number of sulfur atoms involved in proteins (Supplementary FIG. 5, and Supplementary Table 2). […]

mouse CARS1 = biological target: T3, mouse CARS1 (Mus musculus, UniProt Q9ER72); assay: CysSSH and CysSSSH biosynthesis by recombinant mouse CARS1
T3 sequence (Q9ER72 1-748 isoform Q9ER72-2): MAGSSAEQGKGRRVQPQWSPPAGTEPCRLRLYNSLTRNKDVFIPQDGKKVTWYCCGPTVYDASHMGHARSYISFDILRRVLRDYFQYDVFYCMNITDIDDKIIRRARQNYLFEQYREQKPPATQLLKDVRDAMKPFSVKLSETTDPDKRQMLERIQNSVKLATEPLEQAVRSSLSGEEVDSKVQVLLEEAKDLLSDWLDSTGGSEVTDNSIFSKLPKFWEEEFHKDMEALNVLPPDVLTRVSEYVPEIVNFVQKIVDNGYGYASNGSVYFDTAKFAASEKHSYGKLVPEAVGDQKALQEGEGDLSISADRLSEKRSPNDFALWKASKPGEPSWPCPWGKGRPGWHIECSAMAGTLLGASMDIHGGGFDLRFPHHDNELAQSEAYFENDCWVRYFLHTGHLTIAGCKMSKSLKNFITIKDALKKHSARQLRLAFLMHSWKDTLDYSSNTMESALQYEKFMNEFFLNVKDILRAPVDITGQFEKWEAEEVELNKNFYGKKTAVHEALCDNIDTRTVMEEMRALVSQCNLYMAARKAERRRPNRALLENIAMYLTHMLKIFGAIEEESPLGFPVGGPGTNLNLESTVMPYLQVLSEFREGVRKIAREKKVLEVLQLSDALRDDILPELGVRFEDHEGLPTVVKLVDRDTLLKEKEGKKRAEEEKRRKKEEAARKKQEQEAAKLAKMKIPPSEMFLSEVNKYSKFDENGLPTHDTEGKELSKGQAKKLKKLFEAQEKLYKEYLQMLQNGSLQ

human CARS2 = biological target: T4, human CARS2 (Homo sapiens, UniProt Q9HA77); assay: CysSSH and CysSSSH biosynthesis by recombinant human CARS2
T4 sequence (Q9HA77 1-564): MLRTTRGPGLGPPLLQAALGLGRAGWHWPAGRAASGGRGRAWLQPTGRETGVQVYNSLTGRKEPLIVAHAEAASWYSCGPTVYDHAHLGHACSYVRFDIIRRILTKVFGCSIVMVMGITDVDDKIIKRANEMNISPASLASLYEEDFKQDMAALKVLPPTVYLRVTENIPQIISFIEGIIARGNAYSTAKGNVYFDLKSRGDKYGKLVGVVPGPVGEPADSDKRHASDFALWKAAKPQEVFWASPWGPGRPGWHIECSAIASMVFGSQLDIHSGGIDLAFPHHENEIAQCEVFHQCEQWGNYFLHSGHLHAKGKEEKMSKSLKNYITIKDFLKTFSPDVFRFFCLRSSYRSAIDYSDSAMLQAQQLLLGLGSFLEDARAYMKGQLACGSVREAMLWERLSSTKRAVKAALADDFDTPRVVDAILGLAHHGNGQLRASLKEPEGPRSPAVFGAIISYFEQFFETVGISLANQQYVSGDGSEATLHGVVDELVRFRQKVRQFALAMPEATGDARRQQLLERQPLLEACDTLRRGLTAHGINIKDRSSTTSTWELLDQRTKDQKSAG

[1] = tested on: mitochondrial ETC in HEK293T cells; assay: Effect of suppression of ETC on metabolic profiles of CysSSH; assay type: cell-based, human; settings: HPE-IAM labeling LC-MS/MS
Method: Effect of suppression of ETC on metabolic profiles of CysSSH. The mito-chondrial ETC in HEK293T cells was inhibited either by a complex III inhibitor, antimycin A, or by elimination of mitochondrial DNA (mtDNA) induced by ethidium bromide. For the direct but partial ETC (complex III) inhibition, WT and CARS2 KO cells were treated with various concentrations of antimycin A for 1 h, followed by methanol extraction for measurement of CysSSH and its related sulfide derivatives by HPE-IAM labeling LC-ESI-MS/MS analysis as described earlier. […] The quantity of each sulfide produced from CARS2 in the cells was determined by subtracting the amount of each sulfide in CARS2 KO HEK293T cells from that in the WT cells, after quantification of each metabolite via HPE-IAM labeling LC-MS/MS analysis. Changes in the amounts of CysSSH (ACysSSH) and HS— (AHS-) induced by complex III inhibition by antimycin A or by mtDNA elimination in WT and CARS2 KO HEK293T cells were then calculated.

CSE = assay: Kinetic parameters of recombinant CSE with L-cystine as substrate; assay type: biochemical, rat and human

T1 sequence (P21888 whole entry): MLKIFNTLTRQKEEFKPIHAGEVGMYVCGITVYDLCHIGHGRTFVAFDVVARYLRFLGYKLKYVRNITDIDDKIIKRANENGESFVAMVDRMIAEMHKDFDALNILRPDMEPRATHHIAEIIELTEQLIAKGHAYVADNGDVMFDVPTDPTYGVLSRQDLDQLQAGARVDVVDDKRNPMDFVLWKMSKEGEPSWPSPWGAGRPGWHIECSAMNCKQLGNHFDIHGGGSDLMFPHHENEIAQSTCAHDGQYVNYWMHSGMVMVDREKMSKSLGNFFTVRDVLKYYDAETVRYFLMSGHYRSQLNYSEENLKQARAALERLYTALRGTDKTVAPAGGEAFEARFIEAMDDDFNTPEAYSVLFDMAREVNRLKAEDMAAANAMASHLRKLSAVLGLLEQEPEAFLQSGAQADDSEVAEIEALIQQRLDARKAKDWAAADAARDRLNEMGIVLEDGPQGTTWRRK

Nc1ncnc2c1ncn2[C@@H]1O[C@H](COP(=O)(O)OP(=O)(O)OP(=O)(O)O)[C@@H](O)[C@H]1O [ATP]
Dependence of persulfide synthase activity of EcCARS on added factor (EcCARS): but not on ATP

N[C@H](CS)C(=O)O [D-cysteine]
Persulfide generation by EcCARS with cysteine enantiomer as substrate (EcCARS): but not D-cysteine demonstrated activity

N[C@@H](CS)C(=O)O [L-cysteine]
Persulfide generation by EcCARS with cysteine enantiomer as substrate (EcCARS): demonstrated activity

CCN1C(=O)C=CC1=O [N-ethylmaleimide]
HPE-IAM labeling of CysSH and CysSSH/SSSH of ADH5 (ADH5): completely abrogated

Cc1ncc(COP(=O)(O)O)c(C=O)c1O [pyridoxal phosphate]
Dependence of persulfide synthase activity of EcCARS on added factor (EcCARS): depended partly | Dependence of CysS-(S)n-H producing activity on PLP (mouse CARS1; mouse CARS1): depended on the presence of PLP | Dependence of CysS-(S)n-H producing activity on PLP (human CARS2; human CARS2): depended on the presence of PLP | Cysteine persulfide production in reaction mixture of cysteine and PLP alone (human CARS2; no enzyme, no >100 μM PLP): No appreciable cysteine persulfide production was detected

antimycin A
Change in CysSSH [1]: significant increase | Change in HS- production [1]: reduction

B1: mouse CARS1: recombinant cytosolic cysteinyl-tRNA synthetase (protein, UniProt Q9ER72 2-831, looked up)
Cysteine--tRNA ligase, …: AGSSAEQAADYRSILSISDEAARVQALDQHLSTRSYIQGYSLSQADVDVFRQLSAPPADSRLFHVARWFRHIEALLGGPQGRDEPCRLQASKGRRVQPQWSPPAGTEPCRLRLYNSLTRNKDVFIPQDGKKVTWYCCGPTVYDASHMGHARSYISFDILRRVLRDYFQYDVFYCMNITDIDDKIIRRARQNYLFEQYREQKPPATQLLKDVRDAMKPFSVKLSETTDPDKRQMLERIQNSVKLATEPLEQAVRSSLSGEEVDSKVQVLLEEAKDLLSDWLDSTGGSEVTDNSIFSKLPKFWEEEFHKDMEALNVLPPDVLTRVSEYVPEIVNFVQKIVDNGYGYASNGSVYFDTAKFAASEKHSYGKLVPEAVGDQKALQEGEGDLSISADRLSEKRSPNDFALWKASKPGEPSWPCPWGKGRPGWHIECSAMAGTLLGASMDIHGGGFDLRFPHHDNELAQSEAYFENDCWVRYFLHTGHLTIAGCKMSKSLKNFITIKDALKKHSARQLRLAFLMHSWKDTLDYSSNTMESALQYEKFMNEFFLNVKDILRAPVDITGQFEKWEAEEVELNKNFYGKKTAVHEALCDNIDTRTVMEEMRALVSQCNLYMAARKAERRRPNRALLENIAMYLTHMLKIFGAIEEESPLGFPVGGPGTNLNLESTVMPYLQVLSEFREGVRKIAREKKVLEVLQLSDALRDDILPELGVRFEDHEGLPTVVKLVDRDTLLKEKEGKKRAEEEKRRKKEEAARKKQEQEAAKLAKMKIPPSEMFLSEVNKYSKFDENGLPTHDTEGKELSKGQAKKLKKLFEAQEKLYKEYLQMLQNGSLQ
CysS-(S)n-H producing activity (mouse CARS1; recombinant mouse CARS1): strong

B2: CSE: cystathionine γ-lyase (cystathionase), recombinant rat and human (protein, UniProt P32929 1-405, looked up)
Cystathionine gamma-lyase: MQEKDASSQGFLPHFQHFATQAIHVGQDPEQWTSRAVVPPISLSTTFKQGAPGQHSGFEYSRSGNPTRNCLEKAVAALDGAKYCLAFASGLAATVTITHLLKAGDQIICMDDVYGGTNRYFRQVASEFGLKISFVDCSKIKLLEAAITPETKLVWIETPTNPTQKVIDIEGCAHIVHKHGDIILVVDNTFMSPYFQRPLALGADISMYSATKYMNGHSDVVMGLVSVNCESLHNRLRFLQNSLGAVPSPIDCYLCNRGLKTLHVRMEKHFKNGMAVAQFLESNPWVEKVIYPGLPSHPQHELVKRQCTGCTGMVTFYIKGTLQHAEIFLKNLKLFTLAESLGGFESLAELPAIMTHASVLKNDRDVLGISDTLIRLSVGLEDEEDLLEDLDQALKAAHPPSGSHS
modifications: also rat
notes: cystathionine γ-lyase (cystathionase), recombinant rat and human
Km (CSE): > 200 µM
